Measurements: patent publication US20090298811A1, “BENZIMIDAZOLONE DERIVATIVES” (Pfizer Inc, priority 2006, published 2009)
Where a name gives a salt, the structure may show the parent alone.

Columns and labels:
human CB1 receptor [1] = molecular target: T1, human CB1 receptor (Homo sapiens, UniProt P21554); experiment: GTPγS binding on membranes of CHO cells expressing the human CB1 receptor; format: biochemical; design: expressed in transfected cells; host or cells: CHO cells (G418 selection); membranes; conditions: CHO cell membranes, [35S] GTPγS
T1 sequence (P21554 whole entry): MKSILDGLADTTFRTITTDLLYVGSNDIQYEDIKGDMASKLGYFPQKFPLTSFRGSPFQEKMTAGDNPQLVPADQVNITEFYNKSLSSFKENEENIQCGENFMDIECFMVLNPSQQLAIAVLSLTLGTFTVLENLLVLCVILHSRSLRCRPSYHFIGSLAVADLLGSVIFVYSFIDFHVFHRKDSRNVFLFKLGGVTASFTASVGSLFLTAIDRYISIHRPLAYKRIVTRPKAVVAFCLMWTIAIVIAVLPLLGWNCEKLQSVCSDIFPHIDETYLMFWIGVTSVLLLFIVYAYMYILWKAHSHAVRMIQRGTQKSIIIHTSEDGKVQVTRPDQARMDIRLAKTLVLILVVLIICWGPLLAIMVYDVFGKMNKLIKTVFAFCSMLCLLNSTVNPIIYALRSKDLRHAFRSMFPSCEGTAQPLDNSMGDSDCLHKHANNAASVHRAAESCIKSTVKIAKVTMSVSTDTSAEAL
Protocol: Membrane preparation: CHO cells expressing the human CB1 receptor were grown to 80% confluence in Ham's F-12 Nutrient Medium (Invitrogen) containing 10% fetal bovine serum (Invitrogen), 1% pen/strep (Invitrogen), 1% Nonessential amino acids (Invitrogen) and 500 μg/ml G418 (Invitrogen). Cells were released from flasks using Cell Dissociation Buffer (Invitrogen). Cells were pelleted by centrifugation at 500×G for 5 minutes. Membranes were prepared by resuspending cells in ice cold Assay Buffer (25 mM Tris pH 7.4, 5 mM EDTA, 5 mM EGTA, Complete Protease Inhibitor (Roche)). Cells were lysed with 12 strokes of a dounce homogenizer. Unlysed cells were pelleted by centrifugation at 500×G for 5 minutes. Membranes were pelleted by centrifugation at 25,000×G for 30 minutes. Membranes were resuspended in TEE, dounced 12 strokes, and pelleted a second time at 25,000×G for 30 minutes. Membrane pellet was resuspended in 50 mM Tris pH 7.4, 100 mM NaCl, 3 mM MgCl2, 0.2 mM EGTA, Complete Protease Inhibitor (Roche). Protein concentration was determined using the Micro-BCA Protein Assay Kit (Pierce) using BSA as a standard. Membranes were frozen and stored at −80 degrees Celsius until use. GTPγS Binding: 40 μl of test compound was incubated with 20 μl of [^35S] GTPγS (Perkin Elmer) (1250 Ci/millimole) and 140 μl of membrane homogenate (5 ug/well) in polypropylene 96-well plates (Corning). Final reaction conditions were 50 mM Tris pH 7.4, 100 mM NaCl, 3 mM […], 0.2 mM EGTA, 0.04% BSA. After incubation at 37 degrees Celsius for 45 minutes reactions were harvested by vacuum filtration through Unifilter GF/B-96 filters (Perkin Elmer) using a FilterMate Plate Harvester (Perkin Elmer). Filters were rinsed 4 times with ice cold 50 mM Tris pH 7.4, 3 mM MgCl2, 0.2 mM EGTA and dried at 50 degrees Celsius for at least 30 minutes. 40 μl of Microscint-20 (Perkin Elmer) was added per well, and plates were counted using a Top-Count Microplate Scintillation Counter (Perkin Elmer). Binding data were analyzed and EC50 values were calculated using Graph Pad Prism 4.0 Software.

human CB1 receptor [2] = molecular target: T1, human CB1 receptor; experiment: Human CB1 receptor binding, [3H] CP-55,940 displacement on HEK cell membranes; design: expressed in transfected cells; membranes; conditions: [3H] CP-55,940 500 pM
Protocol: The Human CB1 receptor binding affinity and other biological activities of the compounds of this invention are determined by the following procedures.
Membrane preparation: Human Embryonic Kidney (HEK) Cells expressing the human CB1 receptor under transcriptional regulation of a tetracycline inducible promoter were grown in Dulbecco's Modified Essential Medium with sodium pyruvate (Invitrogen, Carlsbad, Calif.) containing 10% tetracycline free fetal bovine serum (Clonetech, Mountain View, Calif.) 100 μg/ml hygromycin (Calbiochem, San Diego, Calif.), 5 μg/ml blasticidin (Invitrogen). CB1 receptor expression was induced by addition of 1 μg/ml doxycycline (Calbiochem) and incubation for an additional 24 hours. Cells were released from flasks using Cell Dissociation Buffer (Invitrogen). Cells were pelleted by centrifugation at 500×G for 5 minutes. Membranes were prepared by resuspending cells in ice cold TEE Buffer (25 mM Tris pH 7.4, 5 mM EDTA, 5 mM EGTA, Complete Protease Inhibitor (Roche, Basel, Switzerland)). Cells were lysed with 12 strokes of a dounce homogenizer. Unlysed cells were pelleted by centrifugation at 500×G for 5 minutes. Membranes were pelleted by centrifugation at 25,000×G for 30 minutes. Membranes were resuspended in TEE, dounced 12 strokes, and pelleted a second time at 25,000×G for 30 minutes. Membrane pellet was resuspended in 50 mM Tris pH 7.4, 100 mM NaCl, 3 mM MgCl2, 0.2 mM EGTA, Complete Protease Inhibitor (Roche). Protein concentration was determined using the Micro-BCA Protein Assay Kit (Pierce, Rockford, Ill.) using BSA as a standard. Membranes were quick frozen and stored at −80 degrees Celsius until use. Binding experiments: 50 μl of test compound was incubated with 50 μl, of [^3H] CP-55,940 (Perkin Elmer, Boston, Mass.) (final concentration 500 pM) and 150 μl of membrane homogenate (1 μg/well) in polypropylene 96-well plates (Corning, Acton, Mass.). Final reaction conditions were 50 mM Tris pH 7.4, 100 mM NaCl, 3 mM MgCl2, 0.2 mM EGTA, 0.04% BSA. Nonspecific binding was determined by incubation with 50 μM WIN-55,212-2 (Tocris, Ellisville, Mo.). After incubation at room temperature for 60 minutes reactions were harvested by vacuum filtration through Unifilter GF/B-96 filters (Perkin Elmer) that had been presoaked in assay buffer containing 0.5% BSA (Sigma, St. Louis, Mo.) using a FilterMate Plate Harvester (Perkin Elmer). Filters were rinsed 4 times with 50 mM Tris pH 7.4, 0.025% Tween20 and dried at 50 degrees Celsius for at least 30 minutes. 40 μl of Microscint-20 (Perkin Elmer) was added per well, and plates were counted using a Top-Count Microplate Scintillation Counter (Perkin Elmer). Binding data were analyzed and EC50 and Ki values calculated using Graph Pad Prism 4.0 Software.

Compound | melting point [°C] | EC50 (human CB1 receptor [1]) [nM] | Ki (human CB1 receptor [2]) [nM]
Cc1cccc2c1n(CCS(C)(=O)=O)c(=O)n2C(=O)N[C@H](C(=O)N(C)C)C(C)(C)C | 190.7 | – | –
CC[C@H](C)[C@H](NC(=O)n1c(=O)n(CCN2CCCCC2)c2ccccc21)C(N)=O (as salt: hydrochloride) | 217.1 | – | –
CC(C)(C)[C@H](NC(=O)n1c(=O)n(CC2CCOCC2)c2cc(F)ccc21)C(=O)NCCCO [Example 355] | – | 361 | 6.72
CC(C)(C)[C@H](NC(=O)n1c(=O)n(CC2CCOCC2)c2cc(F)ccc21)C(=O)NCCO [Example 356] | – | 219 | 16.6
CC(C)(C)[C@H](NC(=O)n1c(=O)n(Cc2ccccc2F)c2ccccc21)C(N)=O [Example 357] | – | 123 | 2.4
CC(C)(C)[C@H](NC(=O)n1c(=O)n(Cc2ccccc2)c2ccccc21)c1nnc(N)o1 [Example 359] | – | 79.2 | 3.06
CC(C)(C)[C@H](NC(=O)n1c(=O)n(Cc2ccccc2)c2ccccc21)C(=O)NCCO [Example 360] | – | 149 | 19.3
CC(C)(C)[C@H](NC(=O)n1c(=O)n(Cc2ccccc2)c2ccccc21)C(=O)NCCCO [Example 361] | – | 249 | 24.7
CC(C)(C)[C@H](NC(=O)n1c(=O)n(Cc2cccc(F)c2)c2ccccc21)C(N)=O [Example 362] | – | 106 | 3.7
CC(C)(C)[C@H](NC(=O)n1c(=O)n(Cc2ccc(F)cc2)c2ccccc21)C(N)=O [Example 363] | – | 4.74 | 0.36
CCCCCn1c(=O)n(C(=O)N[C@H](C(N)=O)C(C)(C)C)c2cccnc21 [Example 365] | – | 1030 | 95.1
